From PubChem BioAssay AID1963976 (Molecular Pharmacology Branch, DTP, NCI, 2024)
Where “and” joins values, the source holds several entries; their conditions need not be identical. Equal entries are not always repeated.

System: 435261-313-R-J1-PDC tumor spheroid viability
Assay: Anticancer human tumor 435261-313-R-J1-PDC patient-derived colon adenocarcinoma cell line growth inhibition [PI3K]
Settings: spheroids with HUVEC and MSC; for viability, T/C: stronger effect = lower value; active = viability on the fitted dose curve at most 10% of control; inactive = the rest
In short: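 Viability of mixed-cell spheroids was determined after exposure to pairwise combinations, one partner being inavolisib, alpelisib, duvelisib or copanlisib. Highest tested concentration matched clinical Cmax where known and 10 microM where not, descending in half-log steps.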

[1] = curve of first compound, second compound 0.00316 µM
[2] = curve of first compound, second compound 0.01 µM
[3] = curve of first compound, second compound 0.0316 µM
[4] = curve of first compound, second compound 0.1 µM
[5] = curve of first compound, second compound 0.316 µM
[6] = curve of first compound, second compound 1 µM
[7] = second compound 0.00316 µM, first compound 0.0316 µM
[8] = second compound 0.00316 µM, first compound 0.1 µM
[9] = second compound 0.01 µM, first compound 0.0316 µM
[10] = second compound 0.01 µM, first compound 0.1 µM
[11] = second compound 0.0316 µM, first compound 0.0316 µM
[12] = second compound 0.0316 µM, first compound 0.1 µM
[13] = second compound 0.1 µM, first compound 0.0316 µM
[14] = second compound 0.1 µM, first compound 0.1 µM
[15] = second compound 0.316 µM, first compound 0.0316 µM
[16] = second compound 0.316 µM, first compound 0.1 µM
[17] = second compound 1 µM, first compound 0.0316 µM
[18] = second compound 1 µM, first compound 0.1 µM
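Also: spheroids exposed to compounds for 7 days.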

Cn1ncnc1[C@H]1c2n[nH]c(=O)c3cc(F)cc(c23)N[C@@H]1c1ccc(F)cc1 + COc1c(OCCCN2CCOCC2)ccc2c3n(c(=NC(=O)c4cnc(N)nc4)nc12)CCN3
47.7 nM: IC50 [1]
active: viability, T/C (second compound 0.316 µM, first compound 0.000316 µM) 8.3% | viability, T/C (second compound 0.316 µM, first compound 0.001 µM) 7.7% | viability, T/C (second compound 0.316 µM, first compound 0.00316 µM) 6.69% | viability, T/C (second compound 0.316 µM, first compound 0.01 µM) 7.31% | viability, T/C [15] 8.06% | viability, T/C [16] 7.38% | viability, T/C (second compound 1 µM, first compound 0.000316 µM) 3.97% | viability, T/C (second compound 1 µM, first compound 0.001 µM) 3.84% | viability, T/C (second compound 1 µM, first compound 0.00316 µM) 3.78% | viability, T/C (second compound 1 µM, first compound 0.01 µM) 3.5% | viability, T/C [17] 4.54% | viability, T/C [18] 2.9%
< 0.316 nM: IC50 [3] | IC50 [4] | IC50 [5] | IC50 [6]
inactive: viability, T/C (second compound 0.00316 µM, first compound 0.000316 µM) 87% | viability, T/C (second compound 0.00316 µM, first compound 0.001 µM) 41.6% | viability, T/C (second compound 0.00316 µM, first compound 0.00316 µM) 76% | viability, T/C (second compound 0.00316 µM, first compound 0.01 µM) 66.4% | viability, T/C [7] 55% | viability, T/C [8] 39% | viability, T/C (second compound 0.01 µM, first compound 0.000316 µM) 62.5% | viability, T/C (second compound 0.01 µM, first compound 0.001 µM) 51% | viability, T/C (second compound 0.01 µM, first compound 0.00316 µM) 36.7% | viability, T/C (second compound 0.01 µM, first compound 0.01 µM) 52.7% | viability, T/C [9] 58.7% | viability, T/C [10] 35% | viability, T/C (second compound 0.0316 µM, first compound 0.000316 µM) 24.6% | viability, T/C (second compound 0.0316 µM, first compound 0.001 µM) 23% | viability, T/C (second compound 0.0316 µM, first compound 0.00316 µM) 27.1% | viability, T/C (second compound 0.0316 µM, first compound 0.01 µM) 21.2% | viability, T/C [11] 21.9% | viability, T/C [12] 22.5% | viability, T/C (second compound 0.1 µM, first compound 0.000316 µM) 17.3% | viability, T/C (second compound 0.1 µM, first compound 0.001 µM) 16.6% | viability, T/C (second compound 0.1 µM, first compound 0.00316 µM) 20.1% | viability, T/C (second compound 0.1 µM, first compound 0.01 µM) 15.8% | viability, T/C [13] 16.8% | viability, T/C [14] 14.4%
0.895 nM: IC50 [2]

CC(C)NCC(C(=O)N1CCN(c2ncnc3c2C(C)CC3O)CC1)c1ccc(Cl)cc1 (stereo unspecified)
inactive: viability, T/C (compound 0.0316 µM) 76.4% and 94.8% and 95.1% | viability, T/C (compound 0.1 µM) 90.5% and 77% and 73.2% | viability, T/C (compound 0.316 µM) 95.1% and 85.8% and 97.9% | viability, T/C (compound 1 µM) 57.7% and 48.9% and 79% | viability, T/C (compound 3.16 µM) 58.6% and 52.4% and 76.3% | viability, T/C (compound 10 µM) 20.2% and 36.6% and 29%
3560 nM and 965 nM and 5920 nM: IC50 (curve of compound)

C=CC(=O)N1CCN(c2nc(=O)n(-c3c(C)ccnc3C(C)C)c3nc(-c4c(O)cccc4F)c(F)cc23)C(C)C1 (stereo unspecified) + COc1c(OCCCN2CCOCC2)ccc2c3n(c(=NC(=O)c4cnc(N)nc4)nc12)CCN3
< 31.6 nM: IC50 [2] | IC50 [3] | IC50 [4] | IC50 [5] | IC50 [6]
inactive: viability, T/C [7] 86.8% | viability, T/C [8] 78.2% | viability, T/C (second compound 0.00316 µM, first compound 0.316 µM) 99% | viability, T/C (second compound 0.00316 µM, first compound 1 µM) 63.5% | viability, T/C (second compound 0.00316 µM, first compound 3.16 µM) 101% | viability, T/C (second compound 0.00316 µM, first compound 10 µM) 97.9% | viability, T/C [9] 45.5% | viability, T/C [10] 56.6% | viability, T/C (second compound 0.01 µM, first compound 0.316 µM) 47.7% | viability, T/C (second compound 0.01 µM, first compound 1 µM) 64.7% | viability, T/C (second compound 0.01 µM, first compound 3.16 µM) 60.2% | viability, T/C (second compound 0.01 µM, first compound 10 µM) 85% | viability, T/C [11] 25.5% | viability, T/C [12] 36.7% | viability, T/C (second compound 0.0316 µM, first compound 0.316 µM) 29% | viability, T/C (second compound 0.0316 µM, first compound 1 µM) 30.6% | viability, T/C (second compound 0.0316 µM, first compound 3.16 µM) 26.3% | viability, T/C (second compound 0.0316 µM, first compound 10 µM) 30.6% | viability, T/C [13] 15.9% | viability, T/C [14] 16.5% | viability, T/C (second compound 0.1 µM, first compound 0.316 µM) 17.5% | viability, T/C (second compound 0.1 µM, first compound 1 µM) 18.7% | viability, T/C (second compound 0.1 µM, first compound 3.16 µM) 15.4% | viability, T/C (second compound 0.1 µM, first compound 10 µM) 16.1%
> 10000 nM: IC50 [1]
active: viability, T/C [15] 8.2% | viability, T/C [16] 8.82% | viability, T/C (second compound 0.316 µM, first compound 0.316 µM) 7.92% | viability, T/C (second compound 0.316 µM, first compound 1 µM) 8.17% | viability, T/C (second compound 0.316 µM, first compound 3.16 µM) 6.9% | viability, T/C (second compound 0.316 µM, first compound 10 µM) 5.27% | viability, T/C [17] 4.55% | viability, T/C [18] 3.78% | viability, T/C (second compound 1 µM, first compound 0.316 µM) 3.56% | viability, T/C (second compound 1 µM, first compound 1 µM) 3.98% | viability, T/C (second compound 1 µM, first compound 3.16 µM) 3.29% | viability, T/C (second compound 1 µM, first compound 10 µM) 2.04%
